Measurements as given in PMC8658889, “Seriniquinones as Therapeutic Leads for Treatment of BRAF and NRAS Mutant Melanomas” (Molecules, 2021).
pIC50: −log10 of the molar value.

Key:
Type in all cases: cell-based, Human
[1] = test system: melanoma cells; experiment: MTT cytotoxicity assay, melanoma panel
Text: (§1) Human cell lines were used throughout this program. SK-MEL-19 (melanoma BRAF^V600E, NRAS^WT), SK-MEL-28 (melanoma BRAF^V600E, NRAS^WT), SK-MEL-147 (melanoma BRAF^WT, NRAS^Q61R), MRC-5 (fibroblasts), and primary fibroblast (FDH) were kindly provided by Professor Glaucia Santelli (University of São Paulo, Brazil). MCF7 (breast adenocarcinoma, ATCC HTB-22), and HCT-116 (colorectal carcinoma, ATCC 247) cells were obtained from American Type Culture Collection (ATCC) and deposited in the Cell Bank of Rio de Janeiro, Brazil. WM293A (metastatic melanoma BRAF^V600D, NRAS^WT), 501mel (metastatic melanoma BRAF^V600E; NRAS^G12D), and MM200 (melanoma BRAF^V600E, NRAS^WT) were kindly provided by Professor Sharon Prince, University of Cape Town, South Africa. All human melanoma and breast cell lines were cultivated with Dulbecco’s Modified Eagle Medium: Nutrient Mixture F-12 (Thermo Fisher Scientific, San Jose, CA, USA). MM200 and HCT-116 were maintained with Roswell Park Memorial Institute (RPMI) medium (Thermo Fisher Scientific, San Jose, CA, USA). Unless stated otherwise, media was supplemented with 10% fetal bovine serum (FBS) and 1% penicillin-streptomycin (Thermo Fisher Scientific, San Jose, CA, USA). Cells were incubated with 5% CO2 at 37 °C. When required, cells were detached from flask using trypsin-EDTA 0.05% (Thermo Fisher Scientific, San Jose, CA, USA).
(§2) Cytotoxic activity was evaluated by the transformation of 3-(4,5-dimethylthiazol-2-yl)-2,5-diphenyltetrazolium bromide (MTT; Thermo Fisher Scientific, San Jose, CA, USA) into formazan by viable cells. Cells were plated in a 96-well plate (1 × 10^4 cells/well) and, 24 h later, exposed to serial dilutions of the test compounds (from 0.00032 to 5.0 µM) for 24, 48, and 72 h. For each analysis, negative controls received 0.5% DMSO and positive control was delivered by doxorubicin (DOX; 0.05 to 10.0 µM). At the end of the incubation periods, the medium was replaced with fresh medium containing 0.5 mg/mL of MTT and supernatant was removed 3 h later. The plates were dried at 50 °C for 30 min and formazan was solubilized in DMSO (150 µL/well) for the absorbance measure at 570 nm on a plate reader (Thermo Fisher Scientific, San Jose, CA, USA). IC50 values (half-maximal inhibitory concentration) along with 95% CI (confidence intervals) were calculated by non-linear regression using GraphPad Prism 8.0 software (GraphPad Software, Inc., San Diego, CA, USA).

[2] = test system: 501mel; experiment: MTT cytotoxicity assay; details: for pIC50: Homo sapiens, 501mel, 72 h treatment, MTT
Text: as §1, §2

[3] = test system: SK-MEL-19; experiment: MTT cytotoxicity assay; details: for pIC50: Homo sapiens, SK-MEL19, SK-MEL-19, 72 h treatment, MTT
Text: as §1, §2

[4] = test system: HCT-116; experiment: MTT cytotoxicity assay; details: for pIC50: Homo sapiens, HCT-116, 72 h treatment, MTT
Text: as §1, §2

[5] = test system: WM293A; experiment: MTT cytotoxicity assay; details: for pIC50: Homo sapiens, WM293A, 72 h treatment, MTT
Text: as §1, §2

[6] = test system: MCF7; experiment: MTT cytotoxicity assay; details: for pIC50: Homo sapiens, MCF7, 72 h treatment, MTT
Text: as §1, §2

[7] = test system: SK-MEL-28; experiment: MTT cytotoxicity assay; details: for pIC50: Homo sapiens
Text: as §1, §2

[8] = test system: MM200; experiment: MTT cytotoxicity assay; details: for pIC50: MM200, 72 h treatment, MTT
Text: as §1, §2

[9] = test system: FDH; experiment: MTT cytotoxicity assay; details: FDH primary fibroblasts, 72 h treatment
Text: as §1, §2

[10] = test system: SK-MEL-147; experiment: MTT cytotoxicity assay; details: for pIC50: Homo sapiens
Text: as §1, §2

[11] = test system: SK-MEL-28; experiment: Clonogenic assay; details: SK-MEL-28, 24 h treatment at half IC50 and IC50, 6 days in drug-free medium
Experimental: […] (2.5 × 10^5) cells in 1 mL of media were seeded in cell culture dishes and, 24 h later, treated with SQ1 (0.3 µM and 0.6 µM for SK-MEL-28 and 0.9 µM and 1.8 µM for SK-MEL-147) or SQ2 (0.05 µM and 0.1 µM for SK-MEL-28 and 0.6 µM and 1.2 µM for SK-MEL-147) for 24 h. Doxorubicin (DOX; 1.4 µM for SK-MEL-28 and 0.8 µM for SK-MEL-147) was used as positive control and 0.5% DMSO as negative control.
After the cells were submitted to the treatment scheme (Section 4.6), adherent cells were collected, plated at 1 × 10^3 cell/plate on 35-mm plates and maintained in culture for 6 days in treatment-free medium. The medium was replaced every 2 days. Cells were then fixed and stained with a solution of 20% MeOH (Synth, Diadema, São Paulo, Brazil) and 0.5 g crystal violet (Sigma-Aldrich, St. Louis, MO, USA). Images were acquired using G:BOX Chemi XRQ (Syngene, Cambridge, UK) and quantified using the ImageJ program (ColonyArea; US National Institutes of Health, Bethesda, MD, USA).

[12] = 501mel versus FDH, 72-h IC50 ratio
[13] = 501mel versus MRC-5, 72-h IC50 ratio
[14] = SK-MEL-19 versus FDH, 72-h IC50 ratio
[15] = SK-MEL-19 versus MRC-5, 72-h IC50 ratio
[16] = HCT-116 versus FDH, 72-h IC50 ratio
[17] = HCT-116 versus MRC-5, 72-h IC50 ratio
[18] = WM293A versus FDH, 72-h IC50 ratio
[19] = WM293A versus MRC-5, 72-h IC50 ratio
[20] = MCF7 versus FDH, 72-h IC50 ratio
[21] = MCF7 versus MRC-5, 72-h IC50 ratio
[22] = SK-MEL-28, 24 h, SK-MEL-28, 24h treatment, MTT
[23] = SK-MEL-28, 48 h, SK-MEL-28, 48h treatment, MTT
[24] = SK-MEL-28, 72 h, SK-MEL-28, 72 h treatment, MTT
[25] = SK-MEL-28, SK-MEL-28, 24h treatment, 1h pre-treated with 30 nM bafilomycin A1
[26] = SK-MEL-28, SK-MEL-28, 24h treatment, 1h pre-treated with 20 µM Z-VAD-FMK
[27] = SK-MEL-28, SK-MEL-28, 24h treatment, no pre-treatment (Table S4)
[28] = SK-MEL-28 versus FDH, 72-h IC50 ratio
[29] = SK-MEL-28 versus MRC-5, 72-h IC50 ratio
[30] = MM200 versus FDH, 72-h IC50 ratio
[31] = MM200 versus MRC-5, 72-h IC50 ratio
[32] = SK-MEL-147, 24 h, SK-MEL-147, 24h treatment, MTT
[33] = SK-MEL-147, 48 h, SK-MEL-147, 48h treatment, MTT
[34] = SK-MEL-147, 72 h, SK-MEL-147, 72 h treatment, MTT
[35] = SK-MEL-147, SK-MEL-147, 24h treatment, 1h pre-treated with 30 nM bafilomycin A1
[36] = SK-MEL-147, SK-MEL-147, 24h treatment, 1h pre-treated with 20 µM Z-VAD-FMK
[37] = SK-MEL-147, SK-MEL-147, 24h treatment, no pre-treatment (Table S4)
[38] = SK-MEL-147 versus FDH, 72-h IC50 ratio
[39] = SK-MEL-147 versus MRC-5, 72-h IC50 ratio

| Compound | Selectivity Index (SI) [2, 12] | Selectivity Index (SI) [2, 13] | pIC50 [2] | pIC50 [3] | Selectivity Index (SI) [3, 14] | Selectivity Index (SI) [3, 15] | Selectivity Index (SI) [4, 16] | Selectivity Index (SI) [4, 17] | pIC50 [4] | pIC50 [5] | Selectivity Index (SI) [5, 18] | Selectivity Index (SI) [5, 19] | pIC50 [6] | Selectivity Index (SI) [6, 20] | Selectivity Index (SI) [6, 21] | pIC50 [7, 22] | pIC50 [7, 23] | pIC50 [7, 24] | pIC50 [7, 25] | pIC50 [7, 26] | other results |
| --- | --- | --- | --- | --- | --- | --- | --- | --- | --- | --- | --- | --- | --- | --- | --- | --- | --- | --- | --- | --- | --- |
| CC(C)(O)C(O)CCc1ccc2c(=O)c3sc4c(=O)c5ccccc5c(=O)c4c3c(=O)c2c1 (stereo not drawn) [SQ2] | 10.6 | 14.3 | 6.96 | 7.40 | 29.3 | 39.3 | 5.1 | 6.8 | 6.64 | 6.13 | 1.6 | 2.1 | 6.14 | 1.6 | 2.2 | 6.85 | 6.59 | 7.40 | 7.22 | 6.43 | selectivity indices to SK-Mel cells in relation to non-tumor cell lines ([1]; SK-Mel cells versus non-tumor cell lines): ≥ twofold; selectivity for melanoma cells (SI ratio) ([1]; melanoma cells versus non-tumor cell lines MRC-5 or FDH, highest values reached): 30–40; pIC50 [7, 27]: 6.62; Selectivity Index (SI) [7, 28]: 29.3; Selectivity Index (SI) [7, 29]: 39.3; pIC50 ([8]; Homo sapiens, 72 h): 6.12; Selectivity Index (SI) [8, 30]: 1.6; Selectivity Index (SI) [8, 31]: 2.1; pIC50 ([9]; Homo sapiens, Fibroblast, 72 h): 5.93; pIC50 [10, 32]: 5.90; pIC50 [10, 33]: 6.05; pIC50 [10, 34]: 7.00; pIC50 [10, 35]: 5.93; pIC50 [10, 36]: 5.89; pIC50 [10, 37]: 6.04; Selectivity Index (SI) [10, 38]: 11.7; Selectivity Index (SI) [10, 39]: 15.7 |
| O=c1c2ccccc2c(=O)c2c1sc1c(=O)c3ccccc3c(=O)c12 [SQ1, seriniquinone] | 3.6 | 2.0 | 6.49 | 7.22 | 19.2 | 10.7 | 1.1 | 0.6 | 6.00 | 5.98 | 1.1 | 0.6 | 5.48 | 0.3 | 0.2 | 6.25 | 6.16 | 6.82 | 6.85 | 6.15 | reduction of the colony levels [11]: greater than 50%; pIC50 [7, 27]: 6.46; Selectivity Index (SI) [7, 28]: 7.7; Selectivity Index (SI) [7, 29]: 4.3; pIC50 ([8]; Homo sapiens, 72 h): 5.87; pIC50 [8]: 5.85; Selectivity Index (SI) [8, 30]: 0.8; Selectivity Index (SI) [8, 31]: 0.5; pIC50 [9]: 5.92; pIC50 ([9]; Homo sapiens, Fibroblast, 72 h): 5.94; pIC50 [10, 32]: 5.75; pIC50 [10, 33]: 5.79; pIC50 [10, 34]: 6.89; pIC50 [10, 35]: 5.65; pIC50 [10, 36]: 5.72; pIC50 [10, 37]: 5.79; Selectivity Index (SI) [10, 38]: 8.8; Selectivity Index (SI) [10, 39]: 4.9 |
